Read-outs that look alike come from different tables or passages of the source.
Key:
[1] = oral; cited from earlier work
[2] = topical 400 mg
Protocol: Cnidocysts were isolated from the filament acontia of Aiptasia diaphana based on their high density and high stability in salts as described previously (1, 2) (FIGS. 1A-C). Briefly, filaments were incubated in 1M sodium citrate, followed by two centrifugations in 70% percoll gradients. The isolated cnidocysts were washed with decreasing concentrations of NaCl (1M to 0.2M) and freeze-dried. The purified cnidocysts were kept dry until use, or formulated in an anhydrous gel consisting of 2% hydroxyl propyl cellulose in absolute ethanol.
The study included 3 dosing sessions as detailed in Table 3 below.

SMILES	fraction absorbed when taken orally [1]	Cumulative Value (CV) % of atropine concentrations, Topical ([2]; Time 0.17)	Cumulative Value (CV) % of atropine concentrations, Topical ([2]; Time 0.25)	Cumulative Value (CV) % of atropine concentrations, Topical ([2]; Time 0.5)	Cumulative Value (CV) % of atropine concentrations, Topical ([2]; Time 0.75)	Cumulative Value (CV) % of atropine concentrations, Topical ([2]; Time 1)	Cumulative Value (CV) % of atropine concentrations, Topical ([2]; Time 2)	Cumulative Value (CV) % of atropine concentrations, Topical ([2]; Time 4)	Cumulative Value (CV) % of atropine concentrations, Topical ([2]; Time 12)	Cumulative Value (CV) % of atropine concentrations, Topical ([2]; Time 24)
NCCCC(O)(P(=O)(O)O)P(=O)(O)O [sodium alendronate]	0.64%	–	–	–	–	–	–	–	–	–
CN1[C@@H]2CC[C@H]1C[C@@H](OC(=O)C(CO)c1ccccc1)C2 (mixture of isomers) [atropine, Atropine]	–	43.6%	76.9%	42.5%	148.9%	103.7%	98.9%	113.2%	96.4%	144.3%
